Values of other authors, collected in PMC7529705 (Biochemistry, 2020).
Entries after “also recorded” stand apart in the source; their conditions may differ. Where no end group is shown, it is not given here. me2a = asymmetric dimethylation (Arg)

Tested on: WDR5
Settings: previously reported

Q: With “H3R2me2a: Histone H3 1–7aa peptide, asymmetrically dimethylated at Arg2 (AR(me2a)TKQTA; UniProt P68431 2-8, looked up, fragment)” as the substance, how does the “Interaction with WDR5” value read?
A: not to interact; also recorded: does not interact
